Measured values published in ChEMBL document CHEMBL4680171, “Oxadiazolylthiazoles as novel and selective antifungal agents” (Eur J Med Chem, 2020).
Values after ≈ are worked out from the molar mass of the structure shown. Active and inactive are the calls of the source. The rule behind the calls is not given here.

Assays:
[1] = Selectivity index, ratio of CC50 for African green monkey Vero cells to MIC for antifungal activity against Candida krusei CAB 396420; type: toxicity; conditions: read-out: Selectivity Index
Candida albicans [2] = experiment: Antifungal activity against Candida albicans SS5314 assessed as reduction in fungal growth by CLSI based broth microdilution method; type: functional
[3] = Selectivity index, ratio of maximum non-toxic concentration for human Caco-2 cells to MIC for antifungal activity against Candida glabrata ATCC 66032; type: toxicity; conditions: read-out: Selectivity Index
[4] = system: Cryptococcus gattii species complex; experiment: Antifungal activity against Cryptococcus gattii NR43210 assessed as reduction in fungal growth incubated for 48 hrs by CLSI based broth microdilution method; type: functional, Cryptococcus bacillisporus
[5] = Selectivity index, ratio of maximum non-toxic concentration for human Caco-2 cells to MIC for antifungal activity against Aspergillus fumigatus NR 35304; type: toxicity; conditions: read-out: Selectivity Index
[6] = Selectivity index, ratio of maximum non-toxic concentration for human Caco-2 cells to MIC for antifungal activity against Cryptococcus gattii NR43209; type: toxicity; conditions: read-out: Selectivity Index
Pichia kudriavzevii = experiment: Antifungal activity against Candida krusei CAB 396420 assessed as reduction in fungal growth incubated for 24 hrs by CLSI based broth microdilution method; type: functional
[7] = Selectivity index, ratio of CC50 for African green monkey Vero cells to MIC for antifungal activity against Cryptococcus neoformans NR41300; type: toxicity; conditions: read-out: Selectivity Index
[8] = Selectivity index, ratio of CC50 for African green monkey Vero cells to MIC for antifungal activity against Cryptococcus neoformans NR41298; type: toxicity; conditions: read-out: Selectivity Index
[9] = Selectivity index, ratio of maximum non-toxic concentration for human Caco-2 cells to MIC for antifungal activity against fluconazole-resistant Candida auris 383; type: toxicity; conditions: read-out: Selectivity Index
Escherichia coli = experiment: Antibacterial activity against Escherichia coli BW25113 assessed as reduction in bacterial growth by CLSI based broth microdilution method; type: functional
[10] = Selectivity index, ratio of maximum non-toxic concentration for human Caco-2 cells to MIC for antifungal activity against Candida parapsilosis ATCC 22019; type: toxicity; conditions: read-out: Selectivity Index
Lacticaseibacillus casei = experiment: Antibacterial activity against Lactobacillus casei HM-334 assessed as reduction in bacterial growth by CLSI based assay; type: organism-based
Candida albicans [11] = experiment: Antifungal activity against Candida albicans SS5314 assessed as reduction in fungal growth measured after 10 passages by CLSI based broth microdilution method; type: functional, organism-based
[12] = Selectivity index, ratio of CC50 for African green monkey Vero cells to MIC for antifungal activity against Candida glabrata ATCC 66032; type: toxicity; conditions: read-out: Selectivity Index
[13] = Selectivity index, ratio of CC50 for African green monkey Vero cells to MIC for antifungal activity against Candida glabrata ATCC MYA-2950; type: toxicity; conditions: read-out: Selectivity Index
[14] = Selectivity index, ratio of maximum non-toxic concentration for human Caco-2 cells to MIC for antifungal activity against Cryptococcus neoformans NR48770; type: toxicity; conditions: read-out: Selectivity Index

In the case of `Cc1nc(-c2ccc(C(C)(C)C)cc2)sc1-c1nnc(N[C@@H]2CCCC[C@@H]2N)o1` (relative stereo), the selectivity ratio [1] is reported as ≤ 64, the MIC (Candida albicans [2]) is reported as 1 mg/L (≈ 2.43 µM) and the selectivity ratio [3] is reported as ≤ 64. The MIC [4] was 1 mg/L (≈ 2.43 µM), the selectivity ratio [5] was ≤ 64 and the selectivity ratio [6] was ≤ 64. The MIC (Pichia kudriavzevii) was 1 mg/L (≈ 2.43 µM), the selectivity ratio [7] was ≤ 64 and the selectivity ratio [8] was ≤ 64. The selectivity ratio [9] was ≤ 64, the MIC (Escherichia coli) was > 64 mg/L and the selectivity ratio [10] was ≤ 64. For the same compound, the MIC (Lacticaseibacillus casei) was > 128 mg/L, the Activity (Candida albicans [11]) was “Active” and the selectivity ratio [12] was ≤ 64. For the same compound, the selectivity ratio [13] was ≤ 64 and the selectivity ratio [14] was ≤ 64.
